# Measured values taken from patent US5616615A, “Enaminone esters” (priority 1995, dated 1997).
# Test system: Maximal electroshock seizures
# Test: MES maximal electroshock seizure test, mice ip
# Format: in vivo
# Conditions: Mus musculus, ip, 0.25 h, mice ip, 10 mg/kg, 0.25 h; read-out: MES, animals protected/tested (converted)
# Description: Three tests were performed:
# 1. MES--Electroshock Seizure Test
# (§1) Maximal electroshock seizures are elicited with a 60-cycle alternating current of 50 mA intensity (5-7 times that necessary to elicit minimal electroshock seizures) delivered via corneal electrodes for 0.2 seconds. A drop of 0.9% saline is instilled in the eye prior to application of the electrodes in order to […].
row,SMILES,responders at 10 mg/kg [%]
1,COC(=O)C1C(=O)C=C(Nc2ccc(Cl)cn2)CC1C (stereo not shown) [Compound 116],75
2,CCOC(=O)C1C(=O)C=C(Nc2ccc(C)cc2)CC1C (stereo not shown) [Compound 125],25
3,CCOC(=O)C1C(=O)C=C(Nc2ccc(C(C)(C)C)cc2)CC1C (stereo not shown) [Compound 130],100

# Same assay, conditions: Mus musculus, ip, 0.5 h, 100 mg/kg, 30 min; read-out: MES, animals protected/tested (converted)
row,SMILES,responders at 100 mg/kg [%]
1,COC(=O)C1C(=O)C=C(Nc2ccc(Cl)cn2)CC1C (stereo not shown) [Compound 116],66.7
2,CCOC(=O)C1C(=O)C=C(Nc2ccc(C)cc2)CC1C (stereo not shown) [Compound 125],33.3
3,CCOC(=O)C1C(=O)C=C(Nc2ccc(C(C)(C)C)cc2)CC1C (stereo not shown) [Compound 130],33.3

# Same assay, conditions: Mus musculus, ip, 0.5 h, 300 mg/kg, 30 min; read-out: MES, animals protected/tested
row,SMILES,responders at 300 mg/kg [%]
1,COC(=O)C1C(=O)C=C(Nc2ccc(Cl)cn2)CC1C (stereo not shown) [Compound 116],100
2,CCOC(=O)C1C(=O)C=C(Nc2ccc(C)cc2)CC1C (stereo not shown) [Compound 125],100
3,CCOC(=O)C1C(=O)C=C(Nc2ccc(C(C)(C)C)cc2)CC1C (stereo not shown) [Compound 130],100

# Same assay, conditions: Mus musculus, ip, 0.5 h, mice ip, 10 mg/kg, 0.50 h; read-out: MES, animals protected/tested (converted)
row,SMILES,responders at 10 mg/kg [%]
1,COC(=O)C1C(=O)C=C(Nc2ccc(Cl)cn2)CC1C (stereo not shown) [Compound 116],100
2,CCOC(=O)C1C(=O)C=C(Nc2ccc(C)cc2)CC1C (stereo not shown) [Compound 125],0
3,CCOC(=O)C1C(=O)C=C(Nc2ccc(C(C)(C)C)cc2)CC1C (stereo not shown) [Compound 130],75

# Same assay, conditions: Mus musculus, ip, 1 h, mice ip, 10 mg/kg, 1.00 h; read-out: MES, animals protected/tested (converted)
row,SMILES,responders at 10 mg/kg [%]
1,COC(=O)C1C(=O)C=C(Nc2ccc(Cl)cn2)CC1C (stereo not shown) [Compound 116],50
2,CCOC(=O)C1C(=O)C=C(Nc2ccc(C)cc2)CC1C (stereo not shown) [Compound 125],25
3,CCOC(=O)C1C(=O)C=C(Nc2ccc(C(C)(C)C)cc2)CC1C (stereo not shown) [Compound 130],50

# Same assay, conditions: Mus musculus, ip, 2 h, mice ip, 10 mg/kg, 2.00 h; read-out: MES, animals protected/tested (converted)
row,SMILES,responders at 10 mg/kg [%]
1,COC(=O)C1C(=O)C=C(Nc2ccc(Cl)cn2)CC1C (stereo not shown) [Compound 116],0
2,CCOC(=O)C1C(=O)C=C(Nc2ccc(C)cc2)CC1C (stereo not shown) [Compound 125],0
3,CCOC(=O)C1C(=O)C=C(Nc2ccc(C(C)(C)C)cc2)CC1C (stereo not shown) [Compound 130],0

# Same assay, conditions: Mus musculus, ip, 4 h, 100 mg/kg, 4 h; read-out: MES, animals protected/tested (converted)
row,SMILES,responders at 100 mg/kg [%]
1,COC(=O)C1C(=O)C=C(Nc2ccc(Cl)cn2)CC1C (stereo not shown) [Compound 116],0
2,CCOC(=O)C1C(=O)C=C(Nc2ccc(C)cc2)CC1C (stereo not shown) [Compound 125],0
3,CCOC(=O)C1C(=O)C=C(Nc2ccc(C(C)(C)C)cc2)CC1C (stereo not shown) [Compound 130],0

# Same assay, conditions: Mus musculus, ip, 4 h, 300 mg/kg, 4 h; read-out: MES, animals protected/tested
row,SMILES,responders at 300 mg/kg [%]
1,COC(=O)C1C(=O)C=C(Nc2ccc(Cl)cn2)CC1C (stereo not shown) [Compound 116],0
2,CCOC(=O)C1C(=O)C=C(Nc2ccc(C)cc2)CC1C (stereo not shown) [Compound 125],0
3,CCOC(=O)C1C(=O)C=C(Nc2ccc(C(C)(C)C)cc2)CC1C (stereo not shown) [Compound 130],0

# Same assay, conditions: Mus musculus, ip, 4 h, mice ip, 10 mg/kg, 4.00 h; read-out: MES, animals protected/tested (converted)
row,SMILES,responders at 10 mg/kg [%]
1,COC(=O)C1C(=O)C=C(Nc2ccc(Cl)cn2)CC1C (stereo not shown) [Compound 116],0
2,CCOC(=O)C1C(=O)C=C(Nc2ccc(C)cc2)CC1C (stereo not shown) [Compound 125],0
3,CCOC(=O)C1C(=O)C=C(Nc2ccc(C(C)(C)C)cc2)CC1C (stereo not shown) [Compound 130],0

# Same assay, conditions: Phase I
row,SMILES,anti-MES protecting ability
1,COC(=O)C1C(=O)C=C(Nc2ccc(Cl)cn2)CC1C (stereo not shown) [Compound 116],showed anti-MES protecting ability
2,CCOC(=O)C1C(=O)C=C(Nc2ccc(C)cc2)CC1C (stereo not shown) [Compound 125],showed anti-MES protecting ability
3,CCOC(=O)C1C(=O)C=C(Nc2ccc(C(C)(C)C)cc2)CC1C (stereo not shown) [Compound 130],showed anti-MES protecting ability

# Test system: not listed separately
# Test: in vivo
# Conditions: rat, po, 50 mg/kg
# Source text: (§2) This oral screen is designated as phase VI.
row,SMILES,"Tox, animals toxic/tested"
1,COC(=O)C1C(=O)C=C(Nc2ccc(Cl)cn2)CC1C (stereo not shown) [Compound 116],0/4
2,CCOC(=O)C1C(=O)C=C(Nc2ccc(C)cc2)CC1C (stereo not shown) [Compound 125],0/4
3,CCOC(=O)C1C(=O)C=C(Nc2ccc(C(C)(C)C)cc2)CC1C (stereo not shown) [Compound 130],0/4

# Test system: Subcutaneous Pentylenetetrazol seizure
# Test: sc Met subcutaneous pentylenetetrazol (Metrazol) seizure test, mice
# Format: in vivo
# Conditions: Mus musculus, sc, 0.5 h, 100 mg/kg, 30 min; read-out: scMet, animals protected/tested (converted)
row,SMILES,responders at 100 mg/kg [%]
1,COC(=O)C1C(=O)C=C(Nc2ccc(Cl)cn2)CC1C (stereo not shown) [Compound 116],0
2,CCOC(=O)C1C(=O)C=C(Nc2ccc(C)cc2)CC1C (stereo not shown) [Compound 125],0
3,CCOC(=O)C1C(=O)C=C(Nc2ccc(C(C)(C)C)cc2)CC1C (stereo not shown) [Compound 130],0

# Same assay, conditions: Mus musculus, sc, 0.5 h, 300 mg/kg, 30 min, second trial; read-out: scMet, animals protected/tested (converted)
row,SMILES,responders at 300 mg/kg [%]
1,COC(=O)C1C(=O)C=C(Nc2ccc(Cl)cn2)CC1C (stereo not shown) [Compound 116],75

# Same assay, conditions: Mus musculus, sc, 0.5 h, 300 mg/kg, 30 min; read-out: scMet, animals protected/tested (converted)
row,SMILES,responders at 300 mg/kg [%]
1,COC(=O)C1C(=O)C=C(Nc2ccc(Cl)cn2)CC1C (stereo not shown) [Compound 116],100
2,CCOC(=O)C1C(=O)C=C(Nc2ccc(C)cc2)CC1C (stereo not shown) [Compound 125],0
3,CCOC(=O)C1C(=O)C=C(Nc2ccc(C(C)(C)C)cc2)CC1C (stereo not shown) [Compound 130],0

# Same assay, conditions: Mus musculus, sc, 4 h, 100 mg/kg, 4 h; read-out: scMet, animals protected/tested (converted)
row,SMILES,responders at 100 mg/kg [%]
1,COC(=O)C1C(=O)C=C(Nc2ccc(Cl)cn2)CC1C (stereo not shown) [Compound 116],0
2,CCOC(=O)C1C(=O)C=C(Nc2ccc(C)cc2)CC1C (stereo not shown) [Compound 125],0
3,CCOC(=O)C1C(=O)C=C(Nc2ccc(C(C)(C)C)cc2)CC1C (stereo not shown) [Compound 130],0

# Same assay, conditions: Mus musculus, sc, 4 h, 300 mg/kg, 4 h; read-out: scMet, animals protected/tested (converted)
row,SMILES,responders at 300 mg/kg [%]
1,COC(=O)C1C(=O)C=C(Nc2ccc(Cl)cn2)CC1C (stereo not shown) [Compound 116],0
2,CCOC(=O)C1C(=O)C=C(Nc2ccc(C)cc2)CC1C (stereo not shown) [Compound 125],0
3,CCOC(=O)C1C(=O)C=C(Nc2ccc(C(C)(C)C)cc2)CC1C (stereo not shown) [Compound 130],0

# Test system: Maximal electroshock seizures
# Test: Phase VI oral MES test, rats
# Format: in vivo
# Conditions: Rattus norvegicus, 0.5 h; oral, 50 mg/kg, 0.50 h; read-out: MES, animals protected/tested (converted)
# Source text: as §1, §2
row,SMILES,responders at 50 mg/kg [%]
1,COC(=O)C1C(=O)C=C(Nc2ccc(Cl)cn2)CC1C (stereo not shown) [Compound 116],100
2,CCOC(=O)C1C(=O)C=C(Nc2ccc(C)cc2)CC1C (stereo not shown) [Compound 125],100
3,CCOC(=O)C1C(=O)C=C(Nc2ccc(C(C)(C)C)cc2)CC1C (stereo not shown) [Compound 130],25

# Same assay, conditions: Rattus norvegicus; oral, 50 mg/kg, 0.25 h; read-out: MES, animals protected/tested (converted)
row,SMILES,responders at 50 mg/kg [%]
1,COC(=O)C1C(=O)C=C(Nc2ccc(Cl)cn2)CC1C (stereo not shown) [Compound 116],100
2,CCOC(=O)C1C(=O)C=C(Nc2ccc(C)cc2)CC1C (stereo not shown) [Compound 125],100
3,CCOC(=O)C1C(=O)C=C(Nc2ccc(C(C)(C)C)cc2)CC1C (stereo not shown) [Compound 130],25

# Same assay, conditions: Rattus norvegicus; oral, 50 mg/kg, 1.00 h; read-out: MES, animals protected/tested (converted)
row,SMILES,responders at 50 mg/kg [%]
1,COC(=O)C1C(=O)C=C(Nc2ccc(Cl)cn2)CC1C (stereo not shown) [Compound 116],100
2,CCOC(=O)C1C(=O)C=C(Nc2ccc(C)cc2)CC1C (stereo not shown) [Compound 125],100
3,CCOC(=O)C1C(=O)C=C(Nc2ccc(C(C)(C)C)cc2)CC1C (stereo not shown) [Compound 130],50

# Same assay, conditions: Rattus norvegicus; oral, 50 mg/kg, 2.00 h; read-out: MES, animals protected/tested (converted)
row,SMILES,responders at 50 mg/kg [%]
1,COC(=O)C1C(=O)C=C(Nc2ccc(Cl)cn2)CC1C (stereo not shown) [Compound 116],100
2,CCOC(=O)C1C(=O)C=C(Nc2ccc(C)cc2)CC1C (stereo not shown) [Compound 125],100
3,CCOC(=O)C1C(=O)C=C(Nc2ccc(C(C)(C)C)cc2)CC1C (stereo not shown) [Compound 130],75

# Same assay, conditions: Rattus norvegicus; oral, 50 mg/kg, 4.00 h; read-out: MES, animals protected/tested (converted)
row,SMILES,responders at 50 mg/kg [%]
1,COC(=O)C1C(=O)C=C(Nc2ccc(Cl)cn2)CC1C (stereo not shown) [Compound 116],100
2,CCOC(=O)C1C(=O)C=C(Nc2ccc(C)cc2)CC1C (stereo not shown) [Compound 125],100
3,CCOC(=O)C1C(=O)C=C(Nc2ccc(C(C)(C)C)cc2)CC1C (stereo not shown) [Compound 130],25

# Test system: seizures
# Test: Anticonvulsant evaluation (ASP phase I / overall)
# Format: in vivo, mice
# Conditions: Mus musculus, ip; Phase I; read-out: ASP Classification
# Description: The first phase of the ADD Program involved performing tests on male Carworth Farms #1 mice. […] Three tests were performed:
# as §1
# The animal is observed for 30 minutes.
row,SMILES,minimal effective dose [mg/kg]
1,COC(=O)C1C(=O)C=C(Nc2ccc(Cl)cn2)CC1C (stereo not shown) [Compound 116],< 100
2,CCOC(=O)C1C(=O)C=C(Nc2ccc(C)cc2)CC1C (stereo not shown) [Compound 125],< 100
3,CCOC(=O)C1C(=O)C=C(Nc2ccc(C(C)(C)C)cc2)CC1C (stereo not shown) [Compound 130],< 100
